Test results as given in patent US12497663B2, “Method of monitoring treatment” (LDN Pharma Limited, priority 2019, dated 2025).

Tested on: CD3+ cells
Assay: Gene expression in CD3+ cells from CD14-ve PBMCs cultured with naltrexone (Illumina biochips)
Assay type: cell-based, human
Conditions: 4 h
Method: The RNA was then extracted from the cells using Trizol then isopropanol. The expression of the genes was measured using Illumina platform with biochips surveying the total human genome. […] The ratio of treated:untreated was calculated and the 25% change from untreated considered relevant.

## O=C1CC[C@@]2(O)[C@H]3Cc4ccc(O)c5c4[C@@]2(CCN3CC2CC2)[C@H]1O5 [NTX, morphinan-6-one,17-(cyclopropylmethyl)-4,5-epoxy-3,14-dihydroxy-(5a)]
10 nM LDN vs 10 uM NTX, 19,571 genes called present, 25% change relevant
  number of genes upregulated by LDN but unchanged by NTX: 223 genes
10 nM naltrexone (LDN)
  ACTB expression, LDN: 156
  ALDH4A1 expression, LDN: 135
  ASAP1 expression, LDN: 97
  BCLAF1 expression, LDN: 130
  BIRC3 expression, LDN: 173
  CASZ1 expression, LDN: 167
  CDC42SE2 expression, LDN: 119
  CDKN2AIP expression, LDN: 93
  DRAP1 expression, LDN: 309
  DYNLL2 expression, LDN: 93
  EIF2S3 expression, LDN: 135
  EIF3E expression, LDN: 427
  EIF4B expression, LDN: 594
  EZR expression, LDN: 1218
  FRG1 expression, LDN: 99
  H3F3A expression, LDN: 616
  HIST1H4C expression, LDN: 1093
  HPCAL1 expression, LDN: 491
  ITGB2 expression, LDN: 719
  KCTD6 expression, LDN: 105
  LSM5 expression, LDN: 166
  MAP4K1 expression, LDN: 475
  MORF4L1 expression, LDN: 135
  MTF1 expression, LDN: 84
  MYLK expression, LDN: 166
  NUCB1 expression, LDN: 436
  OR10A6 expression, LDN: 152
  PAH expression, LDN: 135
  PDCD4 expression, LDN: 83
  PECI expression, LDN: 85
  PRPF8 expression, LDN: 464
  PSME2 expression, LDN: 144
  PVRL2 expression, LDN: 151
  RASAL3 expression, LDN: 356
  S100A6 expression, LDN: 240
  SH3BGRL3 expression, LDN: 327
  SPOCK2 expression, LDN: 1322
  WDR75 expression, LDN: 81
  YWHAZ expression, LDN: 809
10 nM naltrexone
  ACTB L/U-score: U (increase)
  ALDH4A1 L/U-score: U (increase)
  ASAP1 L/U-score: D (reduction)
  BCLAF1 L/U-score: D (reduction)
  BIRC3 L/U-score: D (reduction)
  CASZ1 L/U-score: U (increase)
  CDC42SE2 L/U-score: D (reduction)
  CDKN2AIP L/U-score: D (reduction)
  DRAP1 L/U-score: U (increase)
  DYNLL2 L/U-score: D (reduction)
  EIF2S3 L/U-score: D (reduction)
  EIF3E L/U-score: D (reduction)
  EIF3M L/U-score: D (reduction)
  EIF4B L/U-score: U (increase)
  EZR L/U-score: U (increase)
  FRG1 L/U-score: D (reduction)
  H3F3A L/U-score: D (reduction)
  HIST1H4C L/U-score: D (reduction)
  HPCAL1 L/U-score: U (increase)
  ITGB2 L/U-score: U (increase)
  KCTD6 L/U-score: D (reduction)
  LSM5 L/U-score: D (reduction)
  MAP4K1 L/U-score: U (increase)
  MORF4L1 L/U-score: D (reduction)
  MTF1 L/U-score: D (reduction)
  MYLK L/U-score: U (increase)
  NUCB1 L/U-score: U (increase)
  OR10A6 L/U-score: U (increase)
  PAH L/U-score: U (increase)
  PDCD4 L/U-score: D (reduction)
  PECI L/U-score: D (reduction)
  PRPF8 L/U-score: U (increase)
  PSME2 L/U-score: D (reduction)
  PVRL2 L/U-score: U (increase)
  RASAL3 L/U-score: U (increase)
  S100A6 L/U-score: U (increase)
  SH3BGRL3 L/U-score: U (increase)
  SPOCK2 L/U-score: U (increase)
  WDR75 L/U-score: D (reduction)
  YWHAZ L/U-score: U (increase)
10 uM naltrexone (NTX)
  ACTB expression, NTX: 124
  ALDH4A1 expression, NTX: 95
  ASAP1 expression, NTX: 114
  BCLAF1 expression, NTX: 159
  BIRC3 expression, NTX: 226
  CASZ1 expression, NTX: 107
  CDC42SE2 expression, NTX: 161
  CDKN2AIP expression, NTX: 101
  DRAP1 expression, NTX: 178
  DYNLL2 expression, NTX: 115
  EIF2S3 expression, NTX: 146
  EIF3E expression, NTX: 601
  EIF3M expression, NTX: 131
  EIF4B expression, NTX: 423
  EZR expression, NTX: 841
  FRG1 expression, NTX: 124
  H3F3A expression, NTX: 739
  HIST1H4C expression, NTX: 1370
  HPCAL1 expression, NTX: 275
  ITGB2 expression, NTX: 443
  KCTD6 expression, NTX: 116
  LSM5 expression, NTX: 218
  MAP4K1 expression, NTX: 267
  MORF4L1 expression, NTX: 149
  MTF1 expression, NTX: 95
  MYLK expression, NTX: 124
  NUCB1 expression, NTX: 337
  OR10A6 expression, NTX: 120
  PAH expression, NTX: 95
  PDCD4 expression, NTX: 96
  PECI expression, NTX: 131
  PRPF8 expression, NTX: 353
  PSME2 expression, NTX: 180
  PVRL2 expression, NTX: 113
  RASAL3 expression, NTX: 186
  S100A6 expression, NTX: 112
  SH3BGRL3 expression, NTX: 271
  WDR75 expression, NTX: 95
  YWHAZ expression, NTX: 462
10 uM naltrexone
  ACTB N/U-score: o (no change)
